The values that follow come from patent US9801371B2, “Self-assembling polymer particle release system” (priority 2010, dated 2017).

The first data set can be described thus: Filter paper test: ten 10-ml water washings, UV analysis of AI washed through. Format: physicochemical. Particulars: R line of the washing table, filter paper. The source says:
All of the polymers in this set of experiments were combined with the AI at a 70% AI by weight to 30% polymer by weight concentrations. […] The filter paper samples were applied to a slightly wet Buchner funnel to set the paper evenly and then ten 10-ml aliquots of de-ionized (DI) water were suctioned through the filter paper. Ultraviolet light (UV) analysis for each of the 10-ml fractions was used to determine the absorption of the AI (264 nm) washed through the filter paper and recorded as absorption versus each individual 10-ml wash.
The control for these systems was evaluated by placing methylene chloride solutions of the AI alone or the polymer alone onto the filter paper, drying overnight, and washing with ten 10-ml aliquots of DI water.
The AI was dry ground (mortar and pestle) with urea-formaldehyde flower foam as the cage material [commercial product (Foliage Fresh)] where the ratio of AI to flower foam was 70%/30% by weight. This mixture then was tumbled-coated with an organic solvent solution of a hydrophobic polymer (paraffin wax/hexane; polystyrene/toluene; silicone oil/toluene) in a round bottom flask. […] Small amounts (0.07 g) of the powder were placed on the filter paper and subsequently washed with ten 10-ml aliquots of DI water and analyzed in a similar manner as previously described.
Liquid samples of the AI-polymer combinations and AI control samples were applied to filter paper (Whatman #2) and dried for 24 hours at room temperature. The filter paper containing the AI-polymer combination or the AI control samples were placed in a Buchner funnel under water aspiration vacuum conditions, while ten 10-ml aliquots of water were applied to the top of the filter paper containing the AI-polymer or AI control material, which was then sucked through the filter paper and collected in the receiving flask that holds the funnel-vacuum attachment.
After each 10-ml aliquot of water was suctioned through the filter paper containing the sample, the suctioned solution then was removed and analyzed with a UV spectrometer for any AI that went through the water washing process. The ten 10-ml sequential washings were a simulation of how an AI applied to soil would remain on the soil and migrate through the soil under a rain environmental exposure condition.
Dry 100% solid samples were placed on the filter paper directly and subsequently washed with ten 10-ml aliquots in a similar manner as the liquid samples that were dried after placement on the filter paper.
Various concentrations of the AI's were dissolved in water or water and a co-solvent and analyzed at 254 nm or other UV/visible regions of the spectrum in order to establish a standard calibration curve of absorbance versus AI concentration.
`CC(C)N.O=C(O)COc1ccc(Cl)cc1Cl` [2,4-D Amine Salt (Control)]: the “R Values” is 2.

Still in this data set, the particulars now being: washing 1; sample applied to filter paper and dried.
As for `CC(C)N.O=C(O)COc1ccc(Cl)cc1Cl` [2,4-D Amine Salt (Control)], the “% released” value was found to be 94%.

The same data set, now with this note: washing 2; sample applied to filter paper and dried.
For `CC(C)N.O=C(O)COc1ccc(Cl)cc1Cl` [2,4-D Amine Salt (Control)], the “% released” value is 6%.

The same data set, now with this note: washing 4; sample applied to filter paper and dried.
In the case of `CC(C)N.O=C(O)COc1ccc(Cl)cc1Cl` [2,4-D Amine Salt (Control)], the “% released” value was determined as 0%.

The data set is the same for the next values; noted with them: washing 5; sample applied to filter paper and dried.
Take `CC(C)N.O=C(O)COc1ccc(Cl)cc1Cl` [2,4-D Amine Salt (Control)]: the “% released” value turned out to be 0%.

The data set is the same for the next values; noted with them: washing 6; sample applied to filter paper and dried.
Turning to `CC(C)N.O=C(O)COc1ccc(Cl)cc1Cl` [2,4-D Amine Salt (Control)], the “% released” value turned out to be 0%.

Staying with this data set, now noted: washing 7; sample applied to filter paper and dried.
With `CC(C)N.O=C(O)COc1ccc(Cl)cc1Cl` [2,4-D Amine Salt (Control)], the “% released” value is 0%.

Staying with this data set, now noted: washing 8; sample applied to filter paper and dried.
With `CC(C)N.O=C(O)COc1ccc(Cl)cc1Cl` [2,4-D Amine Salt (Control)], the “% released” value amounted to 0%.

The same data set, now with this note: washing 9; sample applied to filter paper and dried.
On to `CC(C)N.O=C(O)COc1ccc(Cl)cc1Cl` [2,4-D Amine Salt (Control)], for which the “% released” value came to 0%.

The same data set, now with this note: washing 10; * = not all of the sample was released after 10 washings.
Take `CC(C)N.O=C(O)COc1ccc(Cl)cc1Cl` [2,4-D Amine Salt (Control)]: the “% released” value is recorded as 0%.

Still in this data set, the particulars now being: washing 33; sample applied to filter paper and dried.
Take `CC(C)N.O=C(O)COc1ccc(Cl)cc1Cl` [2,4-D Amine Salt (Control)]: the “% released” value is 0%.

Experiment in a further data set: not given
The settings on record: Table 26, USDA Pesticide Properties Database; cited from earlier work.
Turning to `CCOP(=S)(OCC)Oc1nc(Cl)c(Cl)cc1Cl` [Chlorpyrifos], the KOC is 6,000 mg/g. Take `CCOP(=S)(OCC)Oc1cc(C)nc(C(C)C)n1` [Diazinon]: the KOC is 1000 mg/g. Consider `C[n+]1ccc(-c2cc[n+](C)cc2)cc1` [Paraquat], for which the KOC is reported as 1,000,000 mg/g. As for `CNC(=O)N(C)c1nnc(C(C)(C)C)s1` [Tebuthiuron], the KOC is 80 mg/g. As for `CCOP(=S)(OCC)SCSC(C)(C)C` [Terbufos], the KOC is reported as 500 mg/g.

Still in this data set, the particulars now being: Tables 21-25; cited from earlier work.
For the compound `O=C(O)Cc1cccc2ccccc12` [1-Napthylacetic Acid], the KOC is 385. `CCNc1nc(NC(C)C)nc(SC)n1` [Ametryn]: the KOC was 316.

Consider `Clc1nc(Cl)nc(Nc2ccccc2Cl)n1` [Anilazine], for which the KOC is 2000. As to `CCNc1nc(Cl)nc(NC(C)C)n1` [Atrazine], the KOC is 100. For `COP(=S)(OC)SCn1nnc2ccccc2c1=O` [Azinphosmethyl], the KOC is reported as 1000. On to `CCOP(=S)(OCC)OC(Cl)C(Cl)(Cl)Cl` (stereo not shown) [Chlorethoxyfos], for which the KOC is 6100.

For the compound `CCOC(=O)c1ccccc1S(=O)(=O)NC(=O)Nc1nc(Cl)cc(OC)n1` [Chlorimuron-Ethyl], the KOC is recorded as 106.

With `COc1nc(C)nc(NC(=O)NS(=O)(=O)c2ccccc2Cl)n1` [Chlorsulfuron], the KOC was 36.3. Take `CCNc1nc(Cl)nc(NC(C)(C)C#N)n1` [Cyanazine]: the KOC is given as 190. `COP(=O)(OC)O/C(C)=C/C(=O)N(C)C` [Dicrotophos]: the KOC was 75. As to `CNC(=O)CSP(=S)(OC)OC` [Dimethonate], the KOC is 30. On to `CCOP(=S)(OCC)SCCSCC` [Disulfuton], for which the KOC is reported as 13454. As for `CN(C)C(=O)Nc1ccc(Cl)c(Cl)c1` [Diuron], the KOC is 1067.

Take `COP(=S)(OC)Oc1ccc(SC)c(C)c1` [Fenthion]: the KOC is 1500. Take `Cc1ccn2nc(S(=O)(=O)Nc3c(F)cccc3F)nc2n1` [Flumetsulam]: the KOC is 28. Consider `CN(C)C(=O)Nc1cccc(C(F)(F)F)c1` [Fluometuron], for which the KOC is 67.4. With `CS(=O)(=O)NC(=O)c1cc(Oc2ccc(C(F)(F)F)cc2Cl)ccc1[N+](=O)[O-]` [Fomesafen], the KOC is given as 50.

Turning to `CN(C)c1nc(=O)n(C2CCCCC2)c(=O)n1C` [Hezazinone], the KOC was 54.

Consider `CC(C)C1(C)N=C(c2nc3ccccc3cc2C(=O)O)NC1=O` (stereo not shown) [Imazaquin], for which the KOC is reported as 18. In the case of `CCc1cnc(C2=NC(C)(C(C)C)C(=O)N2)c(C(=O)O)c1` (stereo not shown) [Imazethapyr], the KOC is recorded as 52. With `COP(=S)(OC)Oc1cc(Cl)c(I)cc1Cl` [Iodufenphos], the KOC is reported as 50000.

As to `CCOP(=S)(OCC)Oc1nc(Cl)n(C(C)C)n1` [Isazofos], the KOC is reported as 155. Take `CC(C)c1ccc(NC(=O)N(C)C)cc1` [Isoproturon]: the KOC is given as 122. Take `O=C(NC(=O)c1c(F)cccc1F)Nc1cc(Cl)c(OC(F)(F)C(F)C(F)(F)F)cc1Cl` (stereo not shown) [Lufenuron]: the KOC is reported as 41182. For the compound `CN(C)C(=O)Nc1ccc(Cl)cc1` [Monuron], the KOC was 150. With `COc1cc(OC)nc(NC(=O)NS(=O)(=O)c2ncccc2C(=O)N(C)C)n1` [Nicosulfuron], the KOC is listed as 21. `CCOP(=S)(OCC)Oc1ccc([N+](=O)[O-])cc1` [Parathion]: the KOC was 7660.

On to `CCOP(=S)(OCC)SCSCC` [Phorate], for which the KOC is 1660. With `Nc1c(Cl)c(Cl)nc(C(=O)O)c1Cl` [Picloram], the KOC was 35. As for `CCCOP(=S)(OCCC)SCC(=O)N1CCCCC1C` (stereo not shown) [Piperophos], the KOC was 5202.

Consider `O=C(Nc1nc(OC(F)F)cc(OC(F)F)n1)NS(=O)(=O)c1ccccc1C(=O)O` [Primisulfuron], for which the KOC is on record as 50. Regarding `CCCSP(=O)(OCC)Oc1ccc(Br)cc1Cl` (stereo not shown) [Profenofos], the KOC is 2016. Regarding `COc1nc(NC(C)C)nc(NC(C)C)n1` [Prometon], the KOC is reported as 150. For the compound `CSc1nc(NC(C)C)nc(NC(C)C)n1` [Prometryn], the KOC is 400. Regarding `CC(C)Nc1nc(Cl)nc(NC(C)C)n1` [Propazine], the KOC was 154. In the case of `CCCC1COC(Cn2cncn2)(c2ccc(Cl)cc2Cl)O1` (stereo not shown) [Propiconazole], the KOC is listed as 1086. Turning to `O=C(O)c1c(Cl)ccc2cc(Cl)cnc12` [Quinclorac], the KOC is on record as 50. Take `CCS(=O)(=O)c1cccnc1S(=O)(=O)NC(=O)Nc1nc(OC)cc(OC)n1` [Rimsulfuron]: the KOC was 47.

On to `CC1CCCCC1NC(=O)Nc1ccccc1` (stereo not shown) [Siduron], for which the KOC was 420. Turning to `CCNc1nc(Cl)nc(NCC)n1` [Simazine], the KOC is 130. With `Cc1nn(-c2cc(NS(C)(=O)=O)c(Cl)cc2Cl)c(=O)n1C(F)F` [Sulfentrazone], the KOC was 43. `COC(=O)c1ccccc1S(=O)(=O)NC(=O)Nc1nc(C)cc(C)n1` [Sulfometuron-Methyl]: the KOC was 85. With `CCNc1nc(NC(C)(C)C)nc(SC)n1` [Terbutryn], the KOC is listed as 2000. Turning to `O=C(Nc1ccccc1)Nc1cnns1` [Thidiazuron], the KOC was 742. For the compound `CC(C)(C)C(O)C(Oc1ccc(Cl)cc1)n1cncn1` (stereo not shown) [Triadimenol], the KOC is reported as 273. As to `COC(=O)c1ccccc1S(=O)(=O)NC(=O)N(C)c1nc(C)nc(OC)n1` [Tribenuron-Methyl], the KOC is on record as 31. For `Cc1cccc2sc3nncn3c12` [Tricyclazole], the KOC is recorded as 169.

Regarding `COC(=O)c1cccc(C)c1S(=O)(=O)NC(=O)Nc1nc(OCC(F)(F)F)nc(N(C)C)n1` [Triflusulfuron-Methyl], the KOC is listed as 40.
